The values that follow come from patent US8679824B2, “Fermentation broth formulations” (Danisco US Inc., priority 2009, dated 2014).

The test system of this experiment is Trichoderma reesei. Put plainly: T. reesei cell kill, CFU count on PDA plates. The experiment is classed as cell-based. To be noted: pH 4, 24 hours, 40° C.

Procedure: Sodium benzoate was added to separate T. reesei aliquots to a final concentration of 2.5 g/L sodium benzoate or 5 g/L sodium benzoate. The aliquots were then adjusted to pH 4 and incubated for 24 hours at 40° C. After 24 hours of incubation all aliquots were pH adjusted to 4.8 using 10% (w/w) sodium hydroxide. Each aliquot was then serially diluted with sterile water, spread plated onto PDA, and incubated at 25° C. The incubated PDA plates were then counted for CFU.
The aliquots were then adjusted to pH 4 and incubated for 24 hours at 40° C. After 24 hours of incubation all aliquots were pH adjusted to 4.8 using 10% (w/w) sodium hydroxide. Each aliquot was then serially diluted with sterile water, spread plated onto PDA, and incubated at 25° C. The incubated PDA plates were then counted for CFU.

For the molecule `O=C([O-])c1ccccc1.[Na+]` [sodium benzoate], the “log reduction of viable cells” value by setting is: (2.5 g/L sodium benzoate) 5 log; (5 g/L sodium benzoate) 7 log. Also, the “CFU present after incubation” value (5 g/L sodium benzoate) was “less than 10 CFU”.
